# Patent publication EP2545917B1, “NOVEL EP4 AGONIST” (Kaken Pharmaceutical Co., Ltd., priority 2010, dated 2011)
# Tests used:
# intraocular pressure = experiment: Effect on intraocular pressure in rabbits; assay type: in vivo, Japanese white rabbits; details: 0.01 w/v% solution, 50 µL/eye
# Description: (§1) Japanese white rabbits (male, 10 weeks old, BIOTEC Co., Ltd.) were purchased, acclimated for 1 week and used for the study. Compound F solution (0.01 w/v%) was instilled once into the cornea of both eyes at a volume of 50 µL/eye with a micropipette. The intraocular pressure of the right eye was measured and the local irritative effect on the eye was evaluated using the left eye. After surface anesthesia with oxybupranol (Benoxil 0.4% instillation solution), the intraocular pressure was measured before ocular instillation ) and 1, 2, 3, 4, 6 and 8 hr after the instillation using a pneumatonometer (Alcon Ltd.). In addition, the local irritative effect on the eye was evaluated by scoring conjunctival congestion, conjunctival edema, cornea opacity, iris congestion, excretion and eye closure performance. For the evaluation, phosphate buffer was used for the solvent control group, and isopropyl unoprostone (Rescula eye drops, Santen Pharmaceutical Co., Ltd.) was used for comparison. Six animals were used for each group and the results were expressed as average.
# TNF-α = experiment: Suppressive effect on cytokine production, CD4 positive T cells stimulated with anti-CD3 and anti-CD28 antibody, ELISA; assay type: cell-based; details: human CD4 positive T cells, anti-CD3/anti-CD28, 24 hr; geometric mean of three volunteers
# Description: (§2) Blood was collected from 3 healthy volunteers, and CD4 positive T cells were prepared. […] In both cases, the test compound was added 30 min before stimulation.
# IL-2 = experiment: as above; assay type: cell-based; details: human CD4 positive T cells, anti-CD3/anti-CD28, 24 hr; geometric mean of three volunteers
# Description: as §2
# [1] = test system: dextran sodium sulfate-induced colitis; experiment: Prophylactic effect on dextran sodium sulfate-induced colitis model in mice (BALB/c); assay type: in vivo; details: 2.2 w/v% DSS
# Description: Female BALB/c mice (6 weeks old, Japan SLC) were purchased, acclimated for 1 week and used for the study. Except the normal group, the mice were allowed to freely drink a dextran sodium sulfate (to be abbreviated as DSS, MP Biochemicals, M.W. 36,000 - 50,000, Lot No. 3439J) solution prepared to 2.2 w/v% for 9 days to induce colitis. Compound F was orally administered at doses of 0.1, 0.3 and 1 mg/kg, once a day, daily, from the start day of DSS drinking (day 0) to one day before autopsy (day 9). To the control group was orally administered a solvent (1 vol% ethanol solution) at 10 mL/kg in the same manner.
# Thus, to determine the level of diarrhea, the stool was graded into 6 levels; normal (score 0), spherical stool being not less than 50% (score 1), banana-shaped stool being less than 50% (score 2), banana-shaped stool being not less than 50% (score 3), muddy stool (score 4), watery stool (score […]) (stool consistency score). The fecal occult blood (including proctorrhagia) was graded using fecal occult blood slide 5 Shionogi II (Shionogi & Co., Ltd.) into 6 levels; negative (no change of the slide color from yellow, score 0), weakly positive (slightly blue green, score 1), positive (blue green, score 2), moderately positive (clear blue green, score 3), strongly positive (instantaneous color change to dark blue with color developer, score 4), and proctorrhagia (score 5). The sum of the stool consistency score and occult blood score was defined as the stool score. Eight to 10 animals were used for each group, and the results were expressed as average ± standard deviation. On the day of autopsy, after laparotomy under ether anesthesia and blood collection, the mice were exsanguinated to death. Then the large intestines were dissected from just below the cecum to the anus and the length thereof was measured.
# IP-10 = experiment: Suppressive effect on cytokine production, whole blood stimulated with lipopolysaccharide, ELISA; assay type: cell-based; details: human whole blood, indometacin, 48 hr, geometric mean of three volunteers
# eye = experiment: Local irritative effect on the eye in rabbits; assay type: in vivo, Japanese white rabbits; details: single instillation, left eye
# Description: as §1
# Human EP4 [2] = molecular target: T1, Human EP4 (Homo sapiens, UniProt P35408); experiment: Receptor affinity, tritium-labeled PGE2 binding to membranes of transfected COS-7 cells
# T1 construct: expressed in transfected cells; host or cells: COS-7
# T1 sequence (P35408 whole entry): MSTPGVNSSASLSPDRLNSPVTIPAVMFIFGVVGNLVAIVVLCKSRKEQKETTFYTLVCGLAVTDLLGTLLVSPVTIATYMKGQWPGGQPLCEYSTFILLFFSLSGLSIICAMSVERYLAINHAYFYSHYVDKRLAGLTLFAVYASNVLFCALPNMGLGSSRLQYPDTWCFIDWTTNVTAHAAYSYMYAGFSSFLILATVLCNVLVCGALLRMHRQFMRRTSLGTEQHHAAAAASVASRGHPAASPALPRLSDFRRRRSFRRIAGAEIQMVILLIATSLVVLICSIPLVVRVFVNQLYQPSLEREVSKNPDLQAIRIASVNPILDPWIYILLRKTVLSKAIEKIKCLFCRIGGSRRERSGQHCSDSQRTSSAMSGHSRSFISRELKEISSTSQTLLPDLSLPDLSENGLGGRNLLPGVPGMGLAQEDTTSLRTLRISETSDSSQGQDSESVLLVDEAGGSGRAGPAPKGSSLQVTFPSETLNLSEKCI
# Description: (§3) COS-7 cells were transfected with the genes of mouse EP4, human EP1-4 or human IP to overexpress the receptor and then the cell membranes were collected. […] The dissociation constant Kd value was obtained and inhibition constant Ki value of each test compound was determined in a conventional method.
# Human EP3 = molecular target: T2, Human EP3 (Homo sapiens, UniProt P43115); experiment: as above
# T2 construct: expressed in transfected cells; host or cells: COS-7
# T2 sequence (P43115 1-390): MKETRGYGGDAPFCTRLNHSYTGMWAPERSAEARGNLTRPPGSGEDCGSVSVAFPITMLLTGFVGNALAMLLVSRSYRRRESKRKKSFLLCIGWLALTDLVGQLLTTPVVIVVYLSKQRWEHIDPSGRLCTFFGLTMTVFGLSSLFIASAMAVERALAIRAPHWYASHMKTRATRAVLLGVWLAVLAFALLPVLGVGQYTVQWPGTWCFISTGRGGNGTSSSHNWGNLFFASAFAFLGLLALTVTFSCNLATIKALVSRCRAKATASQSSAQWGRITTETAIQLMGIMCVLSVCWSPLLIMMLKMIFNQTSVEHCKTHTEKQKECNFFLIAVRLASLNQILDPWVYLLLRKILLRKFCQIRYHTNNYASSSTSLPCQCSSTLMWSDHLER
# Description: as §3
# [3] = In vitro metabolic stability: β-oxidation reaction in rat liver mitochondria fraction; assay type: in vitro ADME; details: parent compound after NADPH-independent β-oxidation reaction, 37°C, 30 min, tested as isomer mixtures, average ± SD of 3 experiments
# Description: A mixture of the compound F and compound J of the present invention described in Table 1 (F:J = 52:41, synthesized in Example 14), and a mixture of compounds wherein the tetrazole groups at C-1 of compound F and compound J are respectively substituted by carboxylic acid (referred to as carboxylate form, F:J = 54:34, synthesized in Example 15) were tested.
# First, a mitochondria fraction was prepared from the rat liver according to the following Reference A. Then, in reference to the method of […] et al. described in the following References B and C, an NADPH-independent β oxidation reaction was studied. The reaction was carried out at 37°C for 30 min, and stopped with a methanol solution containing a suitable internal standard substance. Each compound was quantified by the internal standard method using a high performance liquid chromatography mass spectrometry apparatus (LC-MS/MS). The compound residual ratio after metabolic reaction of compounds F, J and each carboxylate form thereof in rat mitochondria fraction is shown in the following Table 2 in average ± standard deviation of 3 experiments. Table 2 Residual Ratio of Parent Compound after β-Oxidation Reaction
# Human EP4 [4] = molecular target: T1, Human EP4; experiment: EP4 agonist activity, CRE-LUC reporter gene in transfected COS-7 cells; assay type: cell-based
# Description: In brief, human EP4 gene and CRE-LUC reporter gene were transfected into COS-7 cells. The cells were treated with a test compound one day later, and incubated for 3 hr. The cells were washed, a luminescence substrate was added, and the luminescence intensity was measured for the agonist activity.
compound,measurement,setting,value
"Cc1cccc([C@@H](C)[C@H](O)/C=C/[C@@H]2[C@@H]3[C@H](C[C@H]2O)O/C(=C\CCCc2nnn[nH]2)C3(F)F)c1 [Compound F, 4-[(Z)-(1S,5R,6R,7R)-6-[(1E,3R,4R)-3-hydroxy-4-(m-tolyl)-1-pentenyl]-7-hydroxy-2-oxa-4,4-difluoro-bicyclo[3.3.0]octan-3-ylidene]-1-(tetrazol-5-yl)butane]",decrease in intraocular pressure,intraocular pressure; 1 hr after the instillation,6.9 mmHg
same,decrease in intraocular pressure,intraocular pressure; 2 hr after the instillation,9.3 mmHg
same,decrease in intraocular pressure,intraocular pressure; 6 hr after the instillation,6.6 mmHg
same,IC50,TNF-α,1.25 nM
same,IC50,IL-2,0.509 nM
same,suppression of the increase in the stool score,[1]; oral 0.1 mg/kg once a day,suppressive tendency
same,suppression of the increase in the stool score,[1]; oral 0.3 mg/kg once a day,significant
same,suppression of the increase in the stool score,[1]; oral 1 mg/kg once a day,significant
same,effect on shortening of the large intestine,"[1]; oral 0.1, 0.3 and 1 mg/kg once a day",dose-dependent suppressive effect on shortening of the large intestine
same,IC50,IP-10,1.14 nM
same,local irritant effect on the eye,eye,conjunctival edema and eye closure were observed 1 hr after the instillation in some animals
same,Ki,Human EP4 [2],6.6 nM
same,affinity for binding to human EP4 higher than that to human IP,Human EP4 [2]; ratio of Ki values,≥ 100 fold
same,"affinity for binding to human EP4 higher than those to human EP1, EP2 and EP3 receptors",Human EP4 [2]; ratio of Ki values,≥ 60 fold
same,Ki,Human EP3,410 nM
same,Residual ratio,[3],91.6±6.8%
same,EC50,Human EP4 [4],3.33 nM
